Columns and labels:
JAK2 = target: T1, JAK2 (Homo sapiens, UniProt O60674); test: Kinobeads assay, JAK2; assay type: binding; conditions: mixed Molt4/Ramos lysate, read-out: Inhibition values (IC50) JAK2
T1 construct: endogenous in cells; host or cells: mixed Molt4/Ramos lysate (1:2)
Outline: (§1)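 Competition binding in mixed Molt4/Ramos cell lysate (1:2, 10 mg/mL protein) with Kinobeads carrying immobilized aminopyrido-pyrimidine ligand, 3 h in cold room; 9-step 1:3 compound dilution series from 5 mM DMSO stock. Bead-bound JAK2/JAK3 eluted and quantified by antibody dot blot with infrared detection; IC50 from dose-response curves.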

JAK3 = target: T2, JAK3 (Homo sapiens, UniProt P52333); test: Kinobeads assay, JAK3; assay type: binding; conditions: mixed Molt4/Ramos lysate, read-out: Inhibition values (IC50) JAK3
T2 construct: endogenous in cells; host or cells: mixed Molt4/Ramos lysate (1:2)
T2 sequence (P52333 1-1124): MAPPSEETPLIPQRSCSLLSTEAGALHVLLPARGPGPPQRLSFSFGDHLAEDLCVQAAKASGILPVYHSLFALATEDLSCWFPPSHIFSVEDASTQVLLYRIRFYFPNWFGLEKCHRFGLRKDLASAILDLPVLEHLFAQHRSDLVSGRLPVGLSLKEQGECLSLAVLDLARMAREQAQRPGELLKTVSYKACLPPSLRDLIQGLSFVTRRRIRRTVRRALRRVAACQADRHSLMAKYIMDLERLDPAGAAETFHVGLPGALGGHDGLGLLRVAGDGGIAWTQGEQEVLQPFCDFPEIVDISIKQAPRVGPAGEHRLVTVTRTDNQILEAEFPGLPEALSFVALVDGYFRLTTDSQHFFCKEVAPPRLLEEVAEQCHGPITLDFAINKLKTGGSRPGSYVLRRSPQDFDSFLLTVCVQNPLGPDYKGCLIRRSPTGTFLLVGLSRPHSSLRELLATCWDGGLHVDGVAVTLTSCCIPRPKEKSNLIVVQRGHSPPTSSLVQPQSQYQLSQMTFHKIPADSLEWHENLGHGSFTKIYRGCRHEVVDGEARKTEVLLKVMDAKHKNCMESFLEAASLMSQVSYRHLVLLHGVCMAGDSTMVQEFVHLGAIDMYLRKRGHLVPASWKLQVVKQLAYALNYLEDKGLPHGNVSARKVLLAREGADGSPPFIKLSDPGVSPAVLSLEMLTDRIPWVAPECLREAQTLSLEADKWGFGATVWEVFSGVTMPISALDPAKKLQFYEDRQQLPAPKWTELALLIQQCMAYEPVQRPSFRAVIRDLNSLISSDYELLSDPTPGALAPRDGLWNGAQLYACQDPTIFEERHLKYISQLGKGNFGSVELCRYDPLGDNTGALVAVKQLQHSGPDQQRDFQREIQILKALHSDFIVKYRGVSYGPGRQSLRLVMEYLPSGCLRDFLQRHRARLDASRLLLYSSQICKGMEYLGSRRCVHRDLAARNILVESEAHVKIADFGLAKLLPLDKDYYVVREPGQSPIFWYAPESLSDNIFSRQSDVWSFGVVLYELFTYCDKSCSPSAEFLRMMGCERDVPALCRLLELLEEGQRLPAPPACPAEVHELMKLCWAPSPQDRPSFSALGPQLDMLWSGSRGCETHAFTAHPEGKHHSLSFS
Outline: as §1

T1 sequence (O60674 whole entry): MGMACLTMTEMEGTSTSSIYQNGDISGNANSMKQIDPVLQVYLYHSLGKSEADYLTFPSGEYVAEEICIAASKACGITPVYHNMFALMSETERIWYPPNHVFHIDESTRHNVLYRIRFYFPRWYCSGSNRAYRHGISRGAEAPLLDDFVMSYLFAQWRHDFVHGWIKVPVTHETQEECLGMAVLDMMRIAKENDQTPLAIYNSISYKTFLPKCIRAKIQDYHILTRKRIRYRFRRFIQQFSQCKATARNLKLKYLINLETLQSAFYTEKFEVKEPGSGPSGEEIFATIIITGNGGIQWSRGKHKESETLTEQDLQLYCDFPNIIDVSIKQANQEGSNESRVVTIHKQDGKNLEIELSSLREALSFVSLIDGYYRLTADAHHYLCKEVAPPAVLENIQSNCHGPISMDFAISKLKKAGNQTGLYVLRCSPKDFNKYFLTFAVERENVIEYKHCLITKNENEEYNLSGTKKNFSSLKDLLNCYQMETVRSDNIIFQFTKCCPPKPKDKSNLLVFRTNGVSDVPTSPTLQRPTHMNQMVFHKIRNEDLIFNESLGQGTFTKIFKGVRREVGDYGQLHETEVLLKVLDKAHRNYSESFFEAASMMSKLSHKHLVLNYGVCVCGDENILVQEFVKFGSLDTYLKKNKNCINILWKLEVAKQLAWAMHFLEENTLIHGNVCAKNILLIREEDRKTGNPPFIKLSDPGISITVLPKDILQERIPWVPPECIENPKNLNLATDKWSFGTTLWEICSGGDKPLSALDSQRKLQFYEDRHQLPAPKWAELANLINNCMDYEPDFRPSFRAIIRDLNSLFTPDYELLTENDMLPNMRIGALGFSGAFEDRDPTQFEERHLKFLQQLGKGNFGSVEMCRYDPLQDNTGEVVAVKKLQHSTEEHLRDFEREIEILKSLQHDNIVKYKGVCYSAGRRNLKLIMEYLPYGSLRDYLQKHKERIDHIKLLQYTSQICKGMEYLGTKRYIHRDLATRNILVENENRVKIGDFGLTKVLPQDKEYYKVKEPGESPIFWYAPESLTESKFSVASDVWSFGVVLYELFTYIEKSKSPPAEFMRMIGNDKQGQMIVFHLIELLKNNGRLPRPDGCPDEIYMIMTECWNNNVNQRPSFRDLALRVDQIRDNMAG

Structure (SMILES)	IC50 (JAK2) [nM]	IC50 (JAK3) [nM]
COC1CN(c2cccc(Cn3ncc4cnc(Nc5cnn(C)c5)nc43)c2)C1 [Example 65, 1-(3-(3-Methoxyazetidin-1-yl)benzyl)-N-(1-methyl-1H-pyrazol-4-yl)-1H-pyrazolo[3,4-d]pyrimidin-6-amine]	≥ 10000	< 100
CNC(=O)Cn1cc(Nc2ncc3cnn(Cc4cc(F)cc(N5CCOCC5=O)c4)c3n2)cn1 [Example 68, 2-(4-((1-(3-Fluoro-5-(3-oxomorpholino)benzyl)-1H-pyrazolo[3,4-d]pyrimidin-6-yl)amino)-1H-pyrazol-1-yl)-N-methylacetamide]	1000 to 10000	< 100
OCCn1cc(Nc2ncc3cnn(Cc4cc(N5CCOCC5)cc(F)c4F)c3n2)cn1 [Example 56, 2-(4-((1-(2,3-Difluoro-5-morpholinobenzyl)-1H-pyrazolo[3,4-d]pyrimidin-6-yl)amino)-1H-pyrazol-1-yl)ethanol]	≥ 10000	< 100
OCCn1cc(Nc2ncc3cnn(Cc4c(F)c(F)cc(N5CCOCC5)c4F)c3n2)cn1 [Example 45, 2-(4-((1-(2,3,6-Trifluoro-5-morpholinobenzyl)-1H-pyrazolo[3,4-d]pyrimidin-6-yl)amino)-1H-pyrazol-1-yl)ethanol]	1000 to 10000	< 100
OCCn1cc(Nc2ncc3cnn(Cc4cccc(N5CCNCC5)c4)c3n2)cn1 [Example 47, 2-(4-((1-(3-(piperazin-1-yl)benzyl)-1H-pyrazolo[3,4-d]pyrimidin-6-yl)amino)-1H-pyrazol-1-yl)ethanol]	1000 to 10000	< 100
COC1CCN(c2cccc(Cn3ncc4cnc(Nc5cnn(C)c5)nc43)c2)CC1 [Example 77, 1-(3-(4-Methoxypiperidin-1-yl)benzyl)-N-(1-methyl-1H-pyrazol-4-yl)-1H-pyrazolo[3,4-d]pyrimidin-6-amine]	≥ 10000	< 100
Cn1cc(Nc2ncc3cnn(Cc4cc(N5CCNCC5)cc(F)c4F)c3n2)cn1 [Example 86, 1-(2,3-Difluoro-5-(piperazin-1-yl)benzyl)-N-(1-methyl-1H-pyrazol-4-yl)-1H-pyrazolo[3,4-d]pyrimidin-6-amine]	1000 to 10000	< 100
O=C1CNCCN1c1cc(F)cc(Cn2ncc3cnc(Nc4cnn(CCO)c4)nc32)c1 [Example 63, 1-(3-Fluoro-5-((6-((1-(2-hydroxyethyl)-1H-pyrazol-4-yl)amino)-1H-pyrazolo[3,4-d]pyrimidin-1-yl)methyl)phenyl)piperazin-2-one]	1000 to 10000	< 100
OCCn1cc(Nc2ncc3cnn(Cc4cc(N5CCOCC5)ccc4F)c3n2)cn1 [Example 44, 2-(4-((1-(2-Fluoro-5-morpholinobenzyl)-1H-pyrazolo[3,4-d]pyrimidin-6-yl)amino)-1H-pyrazol-1-yl)ethanol]	≥ 10000	< 100
O=C1COCCN1c1cccc(Cn2ncc3cnc(Nc4cnn(CCO)c4)nc32)c1F [Example 46, 4-(2-Fluoro-3-((6-((1-(2-hydroxyethyl)-1H-pyrazol-4-yl)amino)-1H-pyrazolo[3,4-d]pyrimidin-1-yl)methyl)phenyl)morpholin-3-one]	1000 to 10000	< 100

Further lines, results first:

IC50 (JAK2) [nM]	IC50 (JAK3) [nM]	Structure (SMILES)
1000 to 10000	< 100	Cn1cc(Nc2ncc3cnn(Cc4c(F)c(F)cc(N5CCNCC5)c4F)c3n2)cn1 [Example 66, N-(1-Methyl-1H-pyrazol-4-yl)-1-(2,3,6-trifluoro-5-(piperazin-1-yl)benzyl)-1H-pyrazolo[3,4-d]pyrimidin-6-amine]
1000 to 10000	< 100	c1cc(Cn2ncc3cnc(Nc4cnn(CC5CCNC5)c4)nc32)cc(N2CCOCC2)c1 (centres unmarked) [Example 60, 1-(3-Morpholinobenzyl)-N-(1-(pyrrolidin-3-ylmethyl)-1H-pyrazol-4-yl)-1H-pyrazolo[3,4-d]pyrimidin-6-amine]
1000 to 10000	< 100	OCCn1cc(Nc2ncc3cnn(Cc4cccc(N5CCNCC5)c4F)c3n2)cn1 [Example 83, 2-(4-((1-(2-Fluoro-3-(piperazin-1-yl)benzyl)-1H-pyrazolo[3,4-d]pyrimidin-6-yl)amino)-1H-pyrazol-1-yl)ethanol]
1000 to 10000	< 100	CN(C)CCCn1cc(Nc2ncc3cnn(Cc4c(F)ccc(N5CCOCC5=O)c4F)c3n2)cn1 [Example 75, 4-(3-((6-((1-(3-(Dimethylamino)propyl)-1H-pyrazol-4-yl)amino)-1H-pyrazolo[3,4-d]pyrimidin-1-yl)methyl)-2,4-difluorophenyl)morpholin-3-one]
1000 to 10000	< 100	O=C(c1cccc(Cn2ncc3cnc(Nc4cnn(CCO)c4)nc32)c1F)N1CCOCC1 [Example 85, (2-Fluoro-3-((6-((1-(2-hydroxyethyl)-1H-pyrazol-4-yl)amino)-1H-pyrazolo[3,4-d]pyrimidin-1-yl)methyl)phenyl)(morpholino)methanone]
1000 to 10000	< 100	CN(C)CCCn1cc(Nc2ncc3cnn(Cc4c(F)c(F)cc(N5CCOCC5=O)c4F)c3n2)cn1 [Example 70, 4-(3-((6-((1-(3-(Dimethylamino)propyl)-1H-pyrazol-4-yl)amino)-1H-pyrazolo[3,4-d]pyrimidin-1-yl)methyl)-2,4,5-trifluorophenyl)morpholin-3-one]
100 to 1000	< 100	Cn1cc(Nc2ncc3cnn(Cc4cc(F)cc(N5CCOCC5=O)c4F)c3n2)cn1 [Example 73, 4-(2,5-Difluoro-3-((6-((1-methyl-1H-pyrazol-4-yl)amino)-1H-pyrazolo[3,4-d]pyrimidin-1-yl)methyl)phenyl)morpholin-3-one]
1000 to 10000	< 100	O=C1COCCN1c1cc(F)cc(Cn2ncc3cnc(Nc4cnn(CCO)c4)nc32)c1 [Example 58, 4-(3-Fluoro-5-((6-((1-(2-hydroxyethyl)-1H-pyrazol-4-yl)amino)-1H-pyrazolo[3,4-d]pyrimidin-1-yl)methyl)phenyl)morpholin-3-one]
1000 to 10000	< 100	Cn1cc(Nc2ncc3cnn(Cc4cc(F)cc(C(=O)N5CCNCC5)c4)c3n2)cn1 [Example 80, (3-Fluoro-5-((6-((1-methyl-1H-pyrazol-4-yl)amino)-1H-pyrazolo[3,4-d]pyrimidin-1-yl)methyl)phenyl)(piperazin-1-yl)methanone]
1000 to 10000	< 100	Cn1cc(Nc2ncc3cnn(Cc4cccc(C(=O)N5CCOCC5)c4F)c3n2)cn1 [Example 87, (2-Fluoro-3-((6-((1-methyl-1H-pyrazol-4-yl)amino)-1H-pyrazolo[3,4-d]pyrimidin-1-yl)methyl)phenyl)(morpholino)methanone]
1000 to 10000	< 100	Cn1cc(Nc2ncc3cnn(Cc4cccc(N5CCNCC5=O)c4F)c3n2)cn1 [Example 54, 1-(2-Fluoro-3-((6-((1-methyl-1H-pyrazol-4-yl)amino)-1H-pyrazolo[3,4-d]pyrimidin-1-yl)methyl)phenyl)piperazin-2-one]
1000 to 10000	< 100	Cn1cc(Nc2ncc3cnn(Cc4c(F)ccc(N5CCNCC5=O)c4F)c3n2)cn1 [Example 76, 1-(2,4-Difluoro-3-((6-((1-methyl-1H-pyrazol-4-yl)amino)-1H-pyrazolo[3,4-d]pyrimidin-1-yl)methyl)phenyl)piperazin-2-one]
1000 to 10000	< 100	O=C1COCCN1c1cc(F)c(F)c(Cn2ncc3cnc(Nc4cnn(CCO)c4)nc32)c1F [Example 62, 4-(2,4,5-Trifluoro-3-((6-((1-(2-hydroxyethyl)-1H-pyrazol-4-yl)amino)-1H-pyrazolo[3,4-d]pyrimidin-1-yl)methyl)phenyl)morpholin-3-one]
100 to 1000	< 100	O=C1COCCN1c1cc(F)cc(Cn2ncc3cnc(Nc4cn[nH]c4)nc32)c1 [Example 84, 4-(3-((6-((1H-Pyrazol-4-yl)amino)-1H-pyrazolo[3,4-d]pyrimidin-1-yl)methyl)-5-fluorophenyl)morpholin-3-one]
100 to 1000	< 100	O=C1COCCN1c1cc(F)cc(Cn2ncc3cnc(Nc4cnn(CCO)c4)nc32)c1F [Example 74, 4-(2,5-Difluoro-3-((6-((1-(2-hydroxyethyl)-1H-pyrazol-4-yl)amino)-1H-pyrazolo[3,4-d]pyrimidin-1-yl)methyl)phenyl)morpholin-3-one]

From US9040545B2, “Heterocyclyl pyrazolopyrimidine analogues as selective JAK inhibitors” (Cellzome Limited, priority 2010, dated 2015)
